Literature values as cited in patent US20020171063A1, “Reduced toxicity ethylene glycol-based antifreeze/heat transfer fluid concentrates and antifreeze/heat transfer fluids” (priority 2001, published 2002).

Tested on: laboratory rats

SMILES	acute oral toxicity (LD50)
O.O.O.O.O=B[O-].[Na+] [metaborate]	1,700 mg/kg
CC(O)CO (centres unmarked) [PG, 1,2-propanediol]	20,000 mg/kg
